Marks after values point to notes of the source that are not given here.
Legend:
blood leukocytes [1] = experiment: Leukocyte immunophenotyping of whole blood by flow cytometry; format: in vivo, rat; details: 4 hours after oleic acid
Description: (§1) Animal model and colchicine administration. Male Wistar rats weighing 250-300 g were purchased from Charles River, St. Constant, Québec. They were divided in three groups: Sham+placebo (n=8), oleic acid+placebo (n=8) and oleic acid+colchicine (n=8). Oleic acid (150 mg/kg in 0.3 cc) was prepared daily as a mixture with 0.1% bovine serum albumin (BSA) dissolved in distilled water, stored and protected from light at room temperature. Colchicine (1 mg/kg) or distilled water (placebo) was administered by daily gavage (in a volume up to 2 ml/kg) for three days before the induction of the ALI model. On the beginning of the fourth day a last forth dose of colchicine or placebo was administered and rats immediately injected via a jugular vein cannula with oleic acid or with 0.1% BSA. There was no death in the sham group. There was one death in the oleic acid+placebo group 3 hours after injection of oleic acid and prior to any measurement.
Leukocyte immunophenotyping. Using reverse pipetting, 100 μl of whole blood collected on EDTA-coated tubes were incubated with anti-CD32 to prevent FC-mediated non-specific binding according to the manufacturer's instructions. The panel of antibodies as well as the gating strategy were inspired by Barnett-Vanes and al., PLoS One 2016; 11:e0142520.
Briefly, a panel of 11 antibodies (Table 1) was used to identify the neutrophils (CD45^+/SSChi/His48^+), the monocytes (CD45^+/SSC^lo/His48 ^hi or lo/CD43^hi or lo), the B lymphocytes (CD45^+/SSC^lo/CD45R^−B220^+), the T lymphocytes (CD45^+/SSC^lo/CD3^+/CD4^+ or CD8^+), and the natural killer cells (CD45^+/SSC^lo/CD161a^+). The whole blood samples were incubated with the antibodies for 20 minutes at room temperature and the BD Pharm Lyse solution was then added for 10 minutes to lyse the erythrocytes. Samples were stored at 4° C. until analysis by flow cytometry (LSRII BD Biosciences). Accucount (Spherotech) was added to establish a cell count per μl of blood. Data were analyzed on Diva software version 8.0.1 (BD Biosciences).

oleic acid-induced ALI [2] = experiment: Oleic acid-induced ALI rat model: serum cytokine quantification; format: in vivo; details: 4 hours after oleic acid
Description: as §1
(§2) There was one surgical death in oleic acid+colchicine treatment by laceration of the jugular vein, prior to injection of oleic acid. Oleic acid was administered under ketamine/xylazine anesthesia by slow bolus injection over 30 seconds and the catheter was flushed with 0.3 ml of 0.1% BSA before and after injection. Four hours later, the animals were studied. Conscious unrestrained respiratory parameters were obtained by whole body plethysmography (Emka technologies). Rats were then anesthetized with 2.5% isoflurance and 100% oxygen (1 L/min) administered with a nose cone/face mask for a duration of 5 minutes before terminal exsanguination. 2 ml of arterial blood was collected through the thoracic aorta into a syringe containing lyophilized heparin for arterial blood gas assessment. The remaining blood was collected into EDTA Lavendar tubes for complete blood count and flow cytometry. Cytokines measurements were assessed with serum isolated with serum clot activator tubes.
Serum cytokine quantification. Quantitative determination of serum IFN-γ, IL-1β, IL-4, IL-5, IL-6, KC/GRO, IL-10, IL-13, and TNF-α was done using the electrochemiluminescence-based Meso Scale Discovery (MSD) platform (Rockville, Md., USA). Proteins levels were measured in a multiplex assay using the V-PLEX Proinflammatory Panel 2 Rat kit (MSD). Samples were diluted 1:5 in proprietary buffer (MSD) and measured. Data were acquired using a MESO QuickPlex SQ 120 plate reader (MSD) and protein concentrations were determined using the MSD Discovery Workbench 4.0 analysis software. All values reported are between the lower and the upper limits of quantification of the kit. Quantitative determination of serum Cit-H3 was measured by a commercially available ELISA kit (Cayman Chemical, 501620, Ann Arbor, Mich., USA).

blood leukocytes [3] = experiment: In vitro LPS challenge of blood leukocytes from treated rats (CD11b flow cytometry); format: in vivo; details: rat whole blood at sacrifice, LPS 500 ng/mL in vitro, 30 minutes
Description: as §1
In vitro LPS challenge of blood leukocytes. Whole blood samples collected on EDTA-coated tubes were incubated, or not, with LPS (500 ng/mL) for 30 minutes at 37° C. […] Data were analyzed on Diva software version 8.0.1 (BD Biosciences).

oleic acid-induced ALI [4] = experiment: Oleic acid-induced ALI rat model: lung edema and arterial blood gas; format: in vivo
Description: as §1
as §2, with “2 ml of arterial blood was collected through the thoracic aorta into a syringe containing lyophilized heparin for arterial blood gas assessment. The remaining blood was collected into EDTA Lavendar tubes for complete blood count and flow cytometry.” left out
(§3) The lungs were excised for analysis: the left lung was cannulated and perfusion-fixed with 10% buffered formalin for histology and immunohistochemistry. […] Pulmonary edema was measured from the ratio of total divided by dry weight of the right lung. Total weight, including water, was measured and lung tissue was dried in an oven at 60° C. for 5 days and reweighed as dry weight.

oleic acid-induced ALI [5] = experiment: Oleic acid-induced ALI rat model: conscious respiratory parameters by whole body plethysmography; format: in vivo; details: OA + colchicine 1 mg/kg gavage, 4 hours after oleic acid, mean ± SEM
Description: as §1
There was one surgical death in oleic acid+colchicine treatment by laceration of the jugular vein, prior to injection of oleic acid. Oleic acid was administered under ketamine/xylazine anesthesia by slow bolus injection over 30 seconds and the catheter was flushed with 0.3 ml of 0.1% BSA before and after injection. Four hours later, the animals were studied. […] Cytokines measurements were assessed with serum isolated with serum clot activator tubes.

oleic acid-induced ALI [6] = experiment: Oleic acid-induced ALI rat model: lung histology and immunohistology (HPS, MPO, Cit-H3); format: in vivo; details: colchicine 1 mg/kg gavage, 4 hours after oleic acid
Description: as §1
Lung histology and immunohistology. All histological and immunohistological procedures were performed by the same person blinded to treatment assignment. The left lung was cannulated and perfused with 10% formalin PBS-buffered solution and fixed for 5 days. Tissues were dehydrated by incubating in a series of solutions with an increased ethanol content (70, 95, and 100%), followed by xylene, and embedded in paraffin. The specimens were cut into 6-μm sections, mounted on charged slides and processed with hematoxylin phloxine saffron (HPS) staining.
Immunohistological procedures were initiated by incubating the slides in citrate antigen retrieval (pH 6.0) and endogenous peroxidase blocking (3% hydrogen peroxide). Sections were then blocked by incubating in PBS containing 10% normal goat serum (same species as secondary antibody) for 60 minutes. Slides were incubated with a rabbit polyclonal anti-myeloperoxidase (MPO, Pa5-16672; ThermoFisher, MA USA) for neutrophil detection, with a rabbit polyclonal anti-histone H3 citrulline R2+R8+R17, (Cit-H3, ab5103; ABCAM, Cambridge, United Kingdom) for NETosis and primary antibodies were omitted for negative controls. After washing, sections were incubated with a biotinylated secondary antibody (Vector Laboratories, Burlingame, Calif.) for 30 minutes, washed, then incubated with avidin-biotin complex (ABC kit) and visualized using diaminobenzidine substrate (Vector Laboratories) (27-29).
The HPS slides were scanned to get a picture of the whole left lung (Super coolscan 5000; Nikon, Tokyo Japan). Using a brightfield microscope (BX45, Olympus, Richmond Hill, ON, Canada), images were acquired under 200× magnification on the most damaged/altered regions, acquiring 5 fields per slide for the HPS staining and 10 fields per slide for IHC (MPO and Cit-H3) staining. For the HPS staining, the following analyses were performed: 1) thickness of alveolar membranes, 2) percentage (%) of altered lung tissue, and 3) injury score of the lungs.
To assess the thickness of alveolar membranes, 20 measurements per field were performed (corresponding to 100 measurements per slide) and were expressed as the mean thickness (μm) of the alveolar membranes. A morphometric analysis has been performed to assess the percentage of altered lung tissue over total lung area (excluding trachea, major bronchi, and blood vessels >700 μm diameter). To evaluate lung injury, we used an adapted version of the standardized histology score from the American Thoracic Society Documents (30). […]

oleic acid-induced ALI [7] = experiment: Oleic acid-induced ALI rat model: blood cell counts and biochemistry; format: in vivo; details: OA + colchicine 1 mg/kg gavage, 4 hours after oleic acid, mean ± SEM
Description: as §1, §2

oleic acid-induced ALI [8] = experiment: Lung tissue mRNA expression of 27 markers of inflammation and injury by RT-qPCR; format: in vivo; details: rat lung, 4 hours after oleic acid; colchicine versus OA control
Description: Animal model and colchicine administration. Male Wistar rats weighing 250-300 g were purchased from Charles River, St. Constant, Québec. They were divided in three groups: Sham+placebo (n=8), oleic acid+placebo (n=8) and oleic acid+colchicine (n=8). Oleic acid (150 mg/kg in 0.3 cc) was prepared daily as a mixture with 0.1% bovine serum albumin (BSA) dissolved in distilled water, stored and protected from light at room temperature. Colchicine (1 mg/kg) or distilled water (placebo) was administered by daily gavage (in a volume up to 2 ml/kg) for three days before the induction of the ALI model. […]
as §3
Tissue homogenization, RNA extraction, RT-PCR, and real-time PCR. […] RNA integrity and quantity were assessed using a 2100 Bioanalyzer Instrument (Agilent, Santa Clara, Calif.). […] The geometric mean of housekeeping genes ACTB, GAPDH, and XBP1 was used as an internal control to normalize the variability in expression levels which were analyzed using the 2^−ΔΔCT method. […]

[9] = colchicine 1 mg/kg gavage, 4 hours after oleic acid, versus OA control
[10] = rat left lung, HPS staining, mean±SEM

Q: Which results are given for `COc1cc2c(c(OC)c1OC)-c1ccc(OC)c(=O)cc1[C@@H](NC(C)=O)CC2` [colchicine]?
A: cell surface CD4 and CD8 on respective lymphocyte sub-populations (blood leukocytes [1]; rat blood): normalized; lymphocytes counts on flow cytometry (blood leukocytes [1]; rat blood): no change; neutrophil count on flow cytometry (blood leukocytes [1]; rat blood): increase in neutrophils that was significant; His48 fluorescence of neutrophils (blood leukocytes [1]; unstimulated rat blood): normalized; other cytokines measured: Cit-H3, INF-γ, IL-10, IL-13, IL-4 and IL-5 (oleic acid-induced ALI [2]): no change; serum IL-6 level (oleic acid-induced ALI [2]; colchicine versus OA control): trend towards reduced; serum KC/GRO (oleic acid-induced ALI [2]; colchicine versus OA control): non-significantly reduced; serum TNF-α (oleic acid-induced ALI [2]; colchicine versus OA control): non-significantly reduced; response to LPS stimulation (cell surface CD11b MFI) in leukocytes and granulocytes (blood leukocytes [3]): restored the normal response; PaO2 (equivalent to PaO2/FiO2) (oleic acid-induced ALI [4]; colchicine 1 mg/kg daily gavage, 4 doses before oleic acid 150 mg/kg iv, 4 hours later, 100% FiO2, mean±SEM): 246±45 mmHg; lung edema (pulmonary edema, total/dry lung weight ratio) (oleic acid-induced ALI [4]; [9]): reduced; respiratory acidosis (oleic acid-induced ALI [4]; [9]): reduced; Peek expiratory flow (oleic acid-induced ALI [5]): 13.19 ± 1.41; Peek inspiratory flow (oleic acid-induced ALI [5]): 17.75 ± 2.72 mL/s; relative reduction of histological lung injury (injured area) versus oleic acid ALI group (oleic acid-induced ALI [6]; rat left lung, HPS staining): 61%; Mean alveolar wall thickness (oleic acid-induced ALI [6]; [10]): 7.8±1.1 μm; lung injury score (maximum score of 70) (oleic acid-induced ALI [6]; [10]): 28.7±5.0; proportion of injured area (altered lung tissue over total lung area) (oleic acid-induced ALI [6]; [10]): 9.6±3.1%; NETosis (Cit-H3 immunostaining intensity), increase over basal level (oleic acid-induced ALI [6]; rat lung, oleic acid alone 63%): 35%; Calcium (oleic acid-induced ALI [7]; corrected for pH): 1.40 ± 0.01 mmol/L; Bicarbonate (oleic acid-induced ALI [7]): 27.6 ± 0.8 mmol/L; Lactate (oleic acid-induced ALI [7]): 2.4 ± 0.53 mmol/L; Leukocytes (oleic acid-induced ALI [7]): 4.90 ± 0.68** 10^9/L; Neutrophils (oleic acid-induced ALI [7]): 2.71 ± 0.36** 10^9/L; lung tissue mRNA expression of 27 genes involved in inflammatory responses and injury (oleic acid-induced ALI [8]): no individual statistically significant effect

Reference: patent publication US11844771B2, “Methods of treating acute respiratory distress syndrome using colchicine” (INSTITUT DE C[…] MONTREAL, priority 2021, dated 2023)
